Tested on: halitosis-causing gram-negative bacteria F. nucleatum, P. gingivalis and P. intermedia
Assay: Deferred antagonism assay (anaerobic), producer M18
Assay type: cell-based
Conditions: 2.5% w/w raffinose; or combination with 0.5% w/w galactose
Experimental: Method: CABCa agar plates were prepared with or without 2.5% w/w raffinose, 0.5% w/w galactose or a combination of both saccharides by the addition of 0.5% (w/v) calcium carbonate to solid CAB agar in bottles and then melted by autoclaving at 110° C. for 10 mins. Once cooled, filter sterilised solutions of the saccharides or distilled water were added and mixed and then 20 ml pipetted into petri dishes.
A deferred antagonism assay was conducted using K12 or M18 raw ingredient suspended in THB. This was spread as a 1.2 cm streak containing approximately 1-2×10^6 cfu down the middle of a CABCa control or CABCa galactose supplemented test plate. After 18 hrs growth at 37° C., 5% CO2 in air, bacterial growth was removed, and the pH of the agar in the initial streak was measured and adjusted to a pH of 6.5-7.5 using 0.5M sodium carbonate pH11 before sterilizing the agar surface using chloroform vapor. Bacterial test strains were suspended in THB and swabbed across the plates perpendicular to the initial streak and then the plates were incubated at 37° C. in an anaerobic jar containing an anaeroGen sachet for 4 days. Zones of inhibition for each test strain were then measured (mm).

OC[C@H]1O[C@H](OC[C@H]2O[C@H](O[C@]3(CO)O[C@H](CO)[C@@H](O)[C@@H]3O)[C@H](O)[C@@H](O)[C@@H]2O)[C@H](O)[C@@H](O)[C@H]1O [Raffinose, D-(+) Raffinose pentahydrate]
antimicrobial activity of M18 against halitosis-causing bacteria: inhibit some strains
